“Also recorded” adds a separate entry of the source.
Key:
rabbit cornea [1] = assay: Clinical course after in vivo cornea treatment (edema, epithelial healing, haze); conditions: for epithelial haze / time to healing of corneal epithelial defect: dipotassium salt
Method: Twelve to twenty five weeks old rabbits (2.5-3 Kg weight) were used. They were anesthetized by intramuscular (i.m.) injection of 35 mg/kg ketamine (Rhone Merieux, Lyon, France) and 5 mg/kg xylazine (Vitamed, Binyamina, Israel). Usually, 16 rabbits were assigned for bacteriochlorophyll treatment. After de-epithelialization, one eye of each rabbit was treated topically with a test compound in saline for 10, 20 and 30 minutes using an eye cap (12 mm in diameter), followed by NIR illumination for 10, 20 or 30 minutes (755 nm, 10 mW/cm^2). The other eye served as untreated control. To prevent exposure of the limbal stem cells, the illuminated area was restricted by an aluminum foil mask with an 8 mm diameter central opening. To determine the role of dextran, 12 rabbits were divided into 4 treatment groups of 3 rabbits each: group 1, the Bchl-S group, was treated with a saline solution of a bacteriochlorophyll derivative; group 2, the Bchl-D group, treated with a bacteriochlorophyll-dextran solution. Both groups were incubated with the test compound for 20-min, followed by NIR illumination (755 nm, 10 mW/cm^2) for 30 minutes. Group 3, the RF group, was treated with riboflavin without dextran, and group 4, the RF-D group was treated with RF-dextran solution (RF-D). Both groups were incubated with RF or RF-D solutions for 30-minute, followed by UVA illumination (370 nm, 3 mW/cm^2) for 30 minutes. An ophthalmic ointment containing dexamethasone 0.1%, neomycin and polymixin B (Maxitrol®, Alcon, Belgium) was applied on the treated eyes once daily for two weeks. Four weeks after the treatment the rabbits were sacrificed, and the corneoscleral rings were removed and placed on paraffin hemisphere buttons of matching shape to assure accurate sectioning without stretching the tissue. Corneal strips, 4±0.2 mm in width, were cut from the epithelial side, as described above in the ex-vivo section. The corneal strips were transferred to the biomechanical tester without delay.
To determine the role of dextran, the photochemical treatment with a formulation of WST11 2.5 mg/ml containing 20% dextran T-500 (WST11-D) was examined. Six rabbits were examined: 3 rabbits were pretreated for 20 min with WST11-S solution and 3 with WST11-D solution, followed by NIR illumination for 30 minutes. Additional 4 rabbits were treated with RF (n=2) or RF-D (n=2) for 30 minutes, followed by 30-min UVA irradiation (370 nm, 3 mW/cm^2).

[2] = ESR spin trapping (4-POBN) of reactive oxygen species in aqueous solution; assay type: physicochemical; conditions: NIR (WST11) or UVA (RF) irradiation
Method: All ESR measurements were carried out using a Magnettech ESR Miniscope MS 100 Spectrometer (Germany), with a Microwave X-band Bridge. The ESR spectrometer operates at 9.3-9.55 GHz, 20 mW microwave power. ESR measurements were carried out at room temperature in glass capillaries or flat cells. […] To each solution, the spin-trap α-(4-pyridyl N-oxide)-N-tert-butylnitrone (4-POBN, 65 mM) and ethanol (8%) were added. Controls contained illuminated 4-POBN in saline with/without dextran, and non-illuminated Bchl-S, Bchl-D, RF and RF-D solutions with/without 4-POBN.

rabbit cornea [3] = assay: Penetration depth in cornea from aqueous 65% sucrose solution; assay type: in vivo; conditions: 2.5 mg/ml in aqueous 65% sucrose
Method: Eyes of rabbits were enucleated and deepithelialised mechanically post mortem. The eyes were exposed to Bchl-S solution using an eye cap for 5, 10, and 30 minutes and to Bchl-D solution for 10 and 30 min, in darkness. Controls: untreated eyes, and one eye treated with dextran-500 only for 30 min in darkness. Following this pretreatment, the corneas were briefly rinsed with saline and the central 8-mm buttons were trephined, removed, wrapped in aluminum foil and frozen on dry ice until further use. Central serial corneal sagittal slices (12 μm) were cut with a cryomicrotome, mounted on a microscope glass slide and stored frozen in −70° C. until use. For measurement of fluorescence, the individual slices were placed on the microscope base and a photographic record was immediately taken. Fluorescence intensity of Bchl-S or Bchl-D treated corneas from 3 serial cryo sections was recorded at 760 nm, upon excitation at 740 nm, using a fluorescence microscope (BX61 Olympus, Japan) equipped with CCD camera (Cascade 512B, Roper Sci., USA) and a long pass filter of above 760 nm. The digital data was analyzed, using ImageJ software (NIH, USA). […]

[4] = tested on: de-epithelialized rabbit cornea; assay: Depth of penetration into the rabbit cornea, ex vivo (fluorescence microscopy of sagittal slices); assay type: in vitro ADME
Method: Eyes of rabbits were enucleated and deepithelialised mechanically post mortem. The eyes were exposed to Bchl-S solution using an eye cap for 5, 10, and 30 minutes and to Bchl-D solution for 10 and 30 min, in darkness. Controls: untreated eyes, and one eye treated with dextran-500 only for 30 min in darkness. Following this pretreatment, the corneas were briefly rinsed with saline and the central 8-mm buttons were trephined, removed, wrapped in aluminum foil and frozen on dry ice until further use. Central serial corneal sagittal slices (12 μm) were cut with a cryomicrotome, mounted on a microscope glass slide and stored frozen in −70° C. until use. For measurement of fluorescence, the individual slices were placed on the microscope base and a photographic record was immediately taken. Fluorescence intensity of Bchl-S or Bchl-D treated corneas from 3 serial cryo sections was recorded at 760 nm, upon excitation at 740 nm, using a fluorescence microscope (BX61 Olympus, Japan) equipped with CCD camera (Cascade 512B, Roper Sci., USA) and a long pass filter of above 760 nm. The digital data was analyzed, using ImageJ software (NIH, USA).
The penetration depth of the photosensitizer determines the extent of cornea's tissue exposure to the photodynamic effect. In particular, the deeper the penetration, the higher is the probability for endothelial impairment. To resolve the penetration depth of test compounds following different times of incubation, the digitized fluorescence of dissected corneal discs was monitored using fluorescence microscopy as described in Materials and Methods.
The penetration depth of WST11 into the de-epithelialized cornea, following various incubation times, was performed in the darkness in the absence or presence of dextran, using saline or dextran solutions of WST11 (WST11-S or WST11-D solutions, respectively) in 20 eyes of euthanized rabbits. Sagittal frozen sections mounted on glass slides were subjected to fluorescence microscopy. The distribution of WST11 across the cornea was recorded photographically by fluorescence microscopy (excitation/emission 740/760 nm). The controls were 4 untreated eyes and 1 eye treated only with dextran-T 500 for 30 minutes.

rabbit cornea [5] = assay: Ex-vivo ESR measurements of rabbit corneas; conditions: cornea strips, 4-POBN 65 mM, ethanol 8%
Method: All ESR measurements were carried out using a Magnettech ESR Miniscope MS 100 Spectrometer (Germany), with a Microwave X-band Bridge. The ESR spectrometer operates at 9.3-9.55 GHz, 20 mW microwave power. ESR measurements were carried out at room temperature in glass capillaries or flat cells. Eyes of rabbits were enucleated post mortem. The corneas were de-epithelialized mechanically and corneal strips, 5 mm in width, were cut with a self-constructed double-blade cutter. The strips were immediately immersed for 30 min in solutions containing 4-POBN (65 mM) and ethanol (8%), and either Bchl-S or RF-D. Next, the strips were washed with saline and put in the flat-cells (0.5×5 mm^3) for NIR/UVA illumination followed by ESR measurements with the aforementioned Miniscope.

[6] = in vivo after photosensitizer + illumination
[7] = in vivo after photosensitizer + illumination, listed as WST11-S

## CCC1C2=Cc3c(C)c(C(=O)NCCS(=O)(=O)[O-])c4[n]3[Pd][n]3c(c(C)c(C(C)=O)c3=CC(=N2)C1C)=CC1=NC(=C4CC(=O)OC)C(CCC(=O)[O-])C1C.[K+].[K+] (stereo not drawn) [WST11, Palladium 3^1-oxo-15-methoxycarbonylmethyl-rhodobacteriochlorin 13^1-(2-sulfoethyl)amide dipotassium salt]
Rabbit cornea [1]; [6]
  time to clearing of corneal edema: 5 days
  epithelial haze: without haze development
  time to healing of corneal epithelial defect: 7 to 9 days
Rabbit cornea [1]; [7]
  epithelial haze: some corneas demonstrating epithelial haze
  time to healing of corneal epithelial defect: 10 to 14 days
Rabbit cornea [1]; in vivo, saline solution/NIR
  corneal edema after treatment, duration: one week
[2]
  singlet oxygen trapping (ESR quartet of 4-POBN): minimal traces of singlet oxygen
[2]; dipotassium salt
  superoxide and hydroxyl radicals (ESR sextet of 4-POBN): generate superoxide and hydroxyl radicals; also recorded: superoxide and hydroxyl radical formation
Rabbit cornea [3]; 10-min incubation
  penetration, fraction of the outer stroma: ⅓
Rabbit cornea [3]; 30-min incubation
  penetration, fraction of the outer stroma: ½
[4]; 30 min exposure to saline solution, from 360-380 μm
  stromal thickness after exposure: 600-730 μm
[4]; in saline, no dextran, 10 min exposure, dipotassium salt
  penetration depth into corneal stroma: half of the corneal stroma
[4]; in saline, no dextran, 10 min exposure, listed as WST11-S, dipotassium salt
  penetration depth into corneal stroma: entire outer half of the stroma
[4]; in saline, no dextran, 30 min exposure, dipotassium salt
  penetration depth into corneal stroma: entire stroma depth
[4]; in saline, no dextran, 30 min exposure, listed as WST11-S, dipotassium salt
  penetration depth into corneal stroma: all the way to Descemet's membrane
[4]; with dextran-500, 10 min incubation
  penetration depth into corneal stroma: outer ⅓ of the corneal stroma
[4]; with dextran-500, 30 min incubation
  penetration depth into corneal stroma: 50%
Rabbit cornea [5]
  ESR signals of ROS trapped in the treated cornea: no traces of singlet oxygen

— patent publication US11058772B2, “(Bacterio)chlorophyll photosensitizers for treatment of eye diseases and disorders” (Yeda Research and Development Co. Ltd., priority 2011, dated 2021)
